One may read the EC50 as the concentration at which the effect is half-maximal.

This is an account of results in article PMC3256212, “Mechanism and Function of Drosophila capa GPCR: A Desiccation Stress-Responsive Receptor with Functional Homology to Human NeuromedinU Receptor” (PLoS ONE, 2012).

Ends that are not written are not given here.

The target in one test is T1, capaR (CG14575) (Drosophila melanogaster, UniProt Q8ITC7).
T1 construct: The ORF of capaR was amplified from whole fly cDNA as template; expressed in transfected cells; host or cells: Drosophila S2 cells (pMT/V5-His TOPO, CuSO4 induction)
T1 sequence (Q8ITC7 1-477): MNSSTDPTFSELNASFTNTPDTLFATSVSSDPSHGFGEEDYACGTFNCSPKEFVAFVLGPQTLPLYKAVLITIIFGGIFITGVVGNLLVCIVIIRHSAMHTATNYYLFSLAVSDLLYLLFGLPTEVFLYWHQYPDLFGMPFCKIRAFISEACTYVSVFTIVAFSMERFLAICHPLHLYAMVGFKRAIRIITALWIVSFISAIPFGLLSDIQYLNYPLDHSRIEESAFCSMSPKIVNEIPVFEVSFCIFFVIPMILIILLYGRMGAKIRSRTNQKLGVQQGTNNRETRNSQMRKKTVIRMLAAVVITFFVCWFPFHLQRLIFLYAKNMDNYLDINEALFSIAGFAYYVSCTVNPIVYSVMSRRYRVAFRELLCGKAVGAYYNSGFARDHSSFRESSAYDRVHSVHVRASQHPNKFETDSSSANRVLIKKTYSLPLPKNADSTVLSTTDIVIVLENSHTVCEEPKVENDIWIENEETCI
The test can be described thus: [Ca2+]i (aequorin) in capaR-transfected S2 cells. To be noted: for effect on [Ca2+]i via capaR: 10^−7 M, S2 cells (Fig. 3A); for EC50: S2 cells expressing capaR and apoaequorin, maximal - background, mean ± S.E.M., N = 6 (Fig. 1C), read-out: EC50 for stimulated [Ca2+]i responses via capaR. The test is classed as cell-based. From the text: The ORF of capaR was amplified from whole fly cDNA as template using the primers 5′-[…]-3′ and 5′-[…]-3′ and cloned into pMT/V5-His TOPO vector (Invitrogen). The eYFP ORF was fused in-frame at the C-terminus of the capaR using KpnI and ApaI sites and the tagged construct was cloned into the pMT/V5-His TOPO vector.
(§1) The capa peptides Drm-capa-1 (GANMGLYAFPRVamide), Drm-capa-2 (ASGLVAFPRVamide), Drm-PK-1 (TGPSASSGLWFGPRLamide), Drm-PK-2 (SVPFKPRLamide) and hugin gamma (hugg, pQLQSNGEPAYRVRTPRL-amide) were synthesised as C-terminally amidated peptides (Biomatik Corporation, Canada). Peptides were dissolved in distilled ACN/H2O to a concentration of 1 mM and then diluted to the required working concentration in Schneider's medium (Invitrogen Inc.). Human neuromedin U-25 was purchased from Sigma. Rabbit polyclonal antibody to porcine neuromedinU-8 was purchased from Progen biotechnik (Heidelberg, Germany). Rabbit capa precursor peptide used was described in [21] Rabbit anti-peptide antibody was raised against the capaR epitope (CQQGTNNRETRNSQM) by Genosphere Biotechnologies (Paris, France) and purified on a HiTrap NHS-activated HP column (Amersham Pharmacia Bio-tech; Buckinghamshire, UK) according to the manufacturer's instructions. Immunohistochemistry was carried out as described previously. Mouse anti-GFP primary antibody (Zymed) and the antiserum to neuromedinU-8 were all diluted 1∶1000 or, in the case of the pre-immune serum, the affinity-purified capaR antibody and the antiserum to the capa precursor peptide, 1∶500. Incubations in the primary antibodies were performed overnight. A FITC-conjugated affinity-purified goat anti-mouse antibody (Jackson Immunologicals) was used in a dilution of 1∶1,000 for visualization of the mouse monoclonal anti-GFP. A Texas red-conjugated affinity-purified goat anti-rabbit antibody (Jackson Immunologicals) was used at a dilution of 1∶1,000 for visualization of the rabbit capaR antiserum.
(§2) Drosophila S2 cells, cultured under standard conditions were transiently transfected with the apoaequorin ORF [21] and a receptor ORF construct, and expression induced using CuSO4. Transfected S2 cells were harvested and incubated with 2.5 µM coelenterazine in the dark at RT for 1–2 h as previously described. 25,000 cells were then placed in 135 µl Schneider's medium supplemented with 10% FCS in a well of a white polystyrene 96-well plate (Berthold Technologies). Bioluminescence recordings were carried out using a Mithras LB940 automated 96-well plate reader (Berthold Technologies) and MikroWin software. 15 µl of each of different peptides were applied to final concentrations as required. At the end of each recording samples were disrupted by the addition of 100 µl lysis solution, and the [Ca^2+] concentrations calculated as previously described. For assays in Ca^2+-free medium, transfected cells were collected and pelleted after incubation with coelenterazine. Cell pellets were re-suspended in Ca^2+-free Schneider's medium (Invitrogen Inc.) without FCS and collected by centrifugation. The washing and pelleting procedure was repeated once more. Experiments were then carried out on 25,000 cells per sample as above. To verify whether the observed calcium signal was linked to phospholipase C (PLC) activation, S2-capaR cells were preincubated with the PLC inhibitor U73122 at concentration of 10^−3 M to 10^−8 M for 10 min. Luminometry experiments were carried out on live, intact tubules expressing a targeted transgene for cytosolic-targeted apoaequorin in either principal or stellate cells as previously described, [22]. For in vivo tubule experiments, flies of the following genotypes were used: c42aeq, capaR-GAL4, UAS-capaR, UAS-capaR RNAi, UAS-NMUR 2 and the resulting progeny from GAL4>UAS crosses.

The next test deals with T2, NMU receptor 2 (NMUR 2) (Homo sapiens, UniProt Q9GZQ4).
T2 construct: expressed in transfected cells; host or cells: Drosophila S2 cells (pMT/V5-His TOPO)
T2 sequence (Q9GZQ4 whole entry): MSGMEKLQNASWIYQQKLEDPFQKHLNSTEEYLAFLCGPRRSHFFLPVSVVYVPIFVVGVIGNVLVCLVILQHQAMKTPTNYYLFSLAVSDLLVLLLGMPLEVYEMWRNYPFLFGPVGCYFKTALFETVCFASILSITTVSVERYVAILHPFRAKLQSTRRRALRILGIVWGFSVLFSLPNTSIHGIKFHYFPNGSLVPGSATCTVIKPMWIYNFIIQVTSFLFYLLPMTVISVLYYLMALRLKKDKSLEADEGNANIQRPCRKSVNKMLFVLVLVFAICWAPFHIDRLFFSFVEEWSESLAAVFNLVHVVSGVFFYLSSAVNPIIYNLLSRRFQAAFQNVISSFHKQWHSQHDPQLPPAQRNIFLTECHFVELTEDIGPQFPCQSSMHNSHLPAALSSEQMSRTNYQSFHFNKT
Kind of test: [Ca2+]i (aequorin) in NMUR 2-transfected S2 cells. The test is classed as cell-based. The note with it: 10^−7 M, S2 cells (Fig. 3B). How it is done: as §1
as §2, with “Experiments were then carried out on 25,000 cells per sample as above. To verify whether the observed calcium signal was linked to phospholipase C (PLC) activation, S2-capaR cells were preincubated with the PLC inhibitor U73122 at concentration of 10^−3 M to 10^−8 M for 10 min. Luminometry experiments were carried out on live, intact tubules expressing a targeted transgene for cytosolic-targeted apoaequorin in either principal or stellate cells as previously described, [22]. For in vivo tubule experiments, flies of the following genotypes were used: c42aeq, capaR-GAL4, UAS-capaR, UAS-capaR RNAi, UAS-NMUR 2 and the resulting progeny from GAL4>UAS crosses.” left out

For a further test, the system named is CG8795 (hugin receptor). The test can be described thus: [Ca2+]i (aequorin) in CG8795-transfected S2 cells. The test is classed as cell-based, Drosophila. To be noted: 10^−7 M, S2 cells (Fig. 3C). How it is done: as §1, with “A Texas red-conjugated affinity-purified goat anti-rabbit antibody (Jackson Immunologicals) was used at a dilution of 1∶1,000 for visualization of the rabbit capaR antiserum.” left out
Drosophila S2 cells, cultured under standard conditions were transiently transfected with the apoaequorin ORF [21] and a receptor ORF construct, and expression induced using CuSO4. […] Bioluminescence recordings were carried out using a Mithras LB940 automated 96-well plate reader (Berthold Technologies) and MikroWin software. […] At the end of each recording samples were disrupted by the addition of 100 µl lysis solution, and the [Ca^2+] concentrations calculated as previously described. […]

In the next test the test system is Malpighian tubule. The test can be described thus: Fluid transport by wild-type Malpighian tubules. Further details: species or system Drosophila melanogaster. To be noted: 10^−7 M; mean ± SEM, N = 6–10, Student's t-test P<0.05 (Fig. 4A). How it is done:
Fluid transport assays were carried out as previously described using live, intact tubules dissected from 7-day-old adults with the following genotypes: wild-type Canton-S, c42-GAL4>UAS-capaR RNAi, actin-GAL4>UAS-NMUR 2. Fluid droplets were collected every 10 min, and the volumes of fluid were calculated. Basal rates of fluid secretion were monitored for 30 min, whereupon peptide was added, and the secretion rate was then recorded for a further 30 min.

The subject of the next test is phospholipase C (PLC). Kind of test: PLC inhibition: capa-1-induced [Ca2+]i response in S2-capaR cells. The test is classed as cell-based, Drosophila. The note with it: Fig. 1D. How it is done: as §2, with “To verify whether the observed calcium signal was linked to phospholipase C (PLC) activation, S2-capaR cells were preincubated with the PLC inhibitor U73122 at concentration of 10^−3 M to 10^−8 M for 10 min. Luminometry experiments were carried out on live, intact tubules expressing a targeted transgene for cytosolic-targeted apoaequorin in either principal or stellate cells as previously described, [22]. For in vivo tubule experiments, flies of the following genotypes were used: c42aeq, capaR-GAL4, UAS-capaR, UAS-capaR RNAi, UAS-NMUR 2 and the resulting progeny from GAL4>UAS crosses.” left out

In a further test the test system is NMR 1. Also on record: method as in earlier work. To be noted: CHO cells; ref 39 (Fujii et al.); cited from earlier work.
In test [1] the target is T3, capa receptor (capaR, CG14575) expressed in S2 cells (D. melanogaster) (UniProt Q8ITC7).
T3 sequence: T1 sequence (Q8ITC7 1-477)

In test [2] the target is T3, capa receptor (capaR, CG14575) expressed in S2 cells (D. melanogaster). This is another data set of the same source.
The target of test [3] is human neuromedin U receptor 2 (human) (UniProt Q9GZQ4).
human neuromedin U receptor 2 (human), sequence (Q9GZQ4 whole entry): as above

Turning to “SVPFKPRL-NH2 [Drm-PK-2, Drosophila pyrokinin, SVPFKPRLamide]”, at capaR (CG14575), the “effect on [Ca2+]i via capaR” value was “do not have effects on either capaR”. Besides, the “effect on [Ca2+]i via NMUR 2” value on NMU receptor 2 (NMUR 2) is “do not have effects on either capaR (Fig. 3A) or NMUR 2”. Further, in the test on CG8795 (hugin receptor), the “effect on [Ca2+]i via CG8795” value is “stimulates increased [Ca^2+]i levels”. Further, the “fluid transport by wild-type tubules” value with Malpighian tubule is “not with Drm-PK-1, hugg, Drm-PK-2”.
As to `CC(C)C[C@H](NC(=O)CNC(=O)[C@H](CO)NC(=O)[C@H](C)N)C(=O)N[C@H](C(=O)N[C@@H](C)C(=O)N[C@@H](Cc1ccccc1)C(=O)N1CCC[C@H]1C(=O)N[C@@H](CCCNC(=N)N)C(=O)N[C@H](C(N)=O)C(C)C)C(C)C` [capa-2], the EC50 at capaR (CG14575) was 4.32 nM.
For the molecule “TGPSASSGLWFGPRL-NH2 [Drm-PK-1, Drosophila pyrokinin, …amide]”, at capaR (CG14575), the “effect on [Ca2+]i via capaR” value is recorded as “do not have effects on either capaR”. Moreover, the “effect on [Ca2+]i via NMUR 2” value at NMU receptor 2 (NMUR 2) was “do not have effects on either capaR (Fig. 3A) or NMUR 2”. Further, the “effect on [Ca2+]i via CG8795” value in the test with CG8795 (hugin receptor) is “stimulates increased [Ca^2+]i levels”. Moreover, in the test with Malpighian tubule, the “fluid transport by wild-type tubules” value is “not with Drm-PK-1, hugg, Drm-PK-2”.
In the case of `COc1ccc2c(c1)CC[C@@H]1[C@@H]2CC[C@]2(C)[C@@H](NCCCCCCN3C(=O)C=CC3=O)CC[C@@H]12` [U73122], in the test on phospholipase C (PLC), the “inhibition of capa-1-induced [Ca2+]i response” value was “inhibited by the widely-used PLC inhibitor (U73122) in a dose-dependent manner”.
Consider `CSCC[C@H](NC(=O)[C@H](CC(N)=O)NC(=O)[C@H](C)NC(=O)CN)C(=O)NCC(=O)N[C@@H](CC(C)C)C(=O)N[C@@H](Cc1ccc(O)cc1)C(=O)N[C@@H](C)C(=O)N[C@@H](Cc1ccccc1)C(=O)N1CCC[C@H]1C(=O)N[C@@H](CCCNC(=N)N)C(=O)N[C@H](C(N)=O)C(C)C` [capa-1], for which the concentration giving a half-maximal response (EC50) at capaR (CG14575) stood at 3.06 nM.
On to MNYLAFPRM-NH2 [SCPB], for which, in the test with NMR 1, the “agonistic activity to NMR 1” value is reported as “significant agonistic activity”.
Take “pQLQSNGEPAYRVRTPRL-amide [hugg, hugin gamma, p…-amide]”: on capaR (CG14575), the “effect on [Ca2+]i via capaR” value was “but not hugg nor Drm-PK-2, increases intracellular calcium ([Ca^2+]i) levels via capaR”. Further, the “effect on [Ca2+]i via NMUR 2” value on NMU receptor 2 (NMUR 2) is “increases [Ca^2+]i via NMUR 2 but to a reduced level compared to capa-1”. Also, the “effect on [Ca2+]i via CG8795” value with CG8795 (hugin receptor) was “stimulates increased [Ca^2+]i levels”. Moreover, the “fluid transport by wild-type tubules” value with Malpighian tubule is recorded as “not with Drm-PK-1, hugg, Drm-PK-2”.
GANMGLYAFPRV-NH2 [Drm-capa-1] returned a [Ca2+]i (aequorin luminescence) in S2 cells expressing capaR and apoaequorin, dose-response to capa-1 in test [1] of 3.06 nM.
The molecule ASGLVAFPRV-NH2 [Drm-capa-2] displayed a [Ca2+]i (aequorin luminescence) in S2 cells expressing capaR and apoaequorin, dose-response to capa-2 in [1] of 4.32 nM.
In the case of FRVDEEFQSPFASQSRGYFLFRPRN-NH2 [Human neuromedin U-25], in [2], the [Ca2+]i, dose-response to NMU-25; first of two values given 'respectively', probably capaR- and apoaequorin-co-transfected S2 cells is 21.8 nM; the [Ca2+]i, dose-response to NMU-25; second of two values given 'respectively', probably intact tubules expressing apoaequorin in principal cells (endogenous capaR) was 27.1 nM. In addition, the [Ca2+]i in S2 cells expressing NMUR 2 and apoaequorin, dose-response to NMU-25 in [3] was 0.91 nM.
